ChEMBL document CHEMBL1799908, “Discovery and preliminary SARs of keto-indoles as novel indoleamine 2,3-dioxygenase (IDO) inhibitors” (Eur J Med Chem, 2011)
The source made the active and inactive calls. The rule behind the calls is not given here.

Key:
[1] = target: Tryptophan 2,3-dioxygenase (Mus musculus) (UniProt P48776); assay: Inhibition of mouse TDO expressed in mouse mastocytoma P815B cells using L-Trptophan as substrate at 20 uM after overnight by HPLC; assay type: cell-based
[2] = Cytotoxicity against mouse mastocytoma P815B cells assessed as cell viability at 20 uM after overnight incubation by MTT assay; assay type: cell-based; conditions: for viability at 20 µM: mastocytoma P815B cells, read-out: Activity; for Activity: p815b, 20 µM
[3] = target: T1, Indoleamine 2,3-dioxygenase 1 (Homo sapiens, UniProt P14902); assay: Inhibition of histidine-tagged human recombinant IDO expressed in bacterial strain BL21 AI using L-Trptophan as substrate measured at 490 nm wavelength at 100 uM after 6 min by colorimetric assay
Target sequence in this assay (P14902 whole entry, looked up): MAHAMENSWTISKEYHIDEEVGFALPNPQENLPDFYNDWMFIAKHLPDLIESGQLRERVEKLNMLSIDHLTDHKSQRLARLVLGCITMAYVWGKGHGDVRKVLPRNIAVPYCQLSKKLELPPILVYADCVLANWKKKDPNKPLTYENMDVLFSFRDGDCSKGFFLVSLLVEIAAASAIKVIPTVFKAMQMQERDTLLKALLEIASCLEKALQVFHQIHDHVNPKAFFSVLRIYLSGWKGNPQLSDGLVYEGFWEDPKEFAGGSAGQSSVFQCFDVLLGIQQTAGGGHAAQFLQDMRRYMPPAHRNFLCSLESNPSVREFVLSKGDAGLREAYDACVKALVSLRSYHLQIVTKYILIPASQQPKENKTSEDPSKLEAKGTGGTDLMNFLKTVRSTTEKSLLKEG

[4] = target: T1, Indoleamine 2,3-dioxygenase 1; assay: Uncompetitive inhibition of histidine-tagged human recombinant IDO expressed in bacterial strain BL21 AI using L-Trptophan as substrate measured at 490 nm wavelength after 6 min by colorimetric assay
Target sequence in this assay (P14902 whole entry): as the sequence (P14902 whole entry, looked up) above

[5] = target: T1, Indoleamine 2,3-dioxygenase 1; assay: Uncompetitive inhibition of histidine-tagged human recombinant IDO expressed in Escherichia coli using L-Trptophan as substrate assessed as hypochromic effect by UV analysis
Target sequence in this assay (P14902 whole entry, looked up): as above

[6] = target: T1, Indoleamine 2,3-dioxygenase 1; assay: Competitive inhibition of histidine-tagged human recombinant IDO expressed in bacterial strain BL21 AI using L-Trptophan as substrate measured at 490 nm wavelength after 6 min by colorimetric assay
Target sequence in this assay (P14902 whole entry): as the sequence (P14902 whole entry, looked up) above

[7] = target: Indoleamine 2,3-dioxygenase 1 (Mus musculus) (UniProt P28776); assay: Inhibition of mouse IDO expressed in mouse mastocytoma P815B cells using L-Trptophan as substrate at 20 uM after overnight by HPLC; assay type: cell-based
Indoleamine 2,3-dioxygenase 1 (Mus musculus), sequence (P28776 whole entry, looked up): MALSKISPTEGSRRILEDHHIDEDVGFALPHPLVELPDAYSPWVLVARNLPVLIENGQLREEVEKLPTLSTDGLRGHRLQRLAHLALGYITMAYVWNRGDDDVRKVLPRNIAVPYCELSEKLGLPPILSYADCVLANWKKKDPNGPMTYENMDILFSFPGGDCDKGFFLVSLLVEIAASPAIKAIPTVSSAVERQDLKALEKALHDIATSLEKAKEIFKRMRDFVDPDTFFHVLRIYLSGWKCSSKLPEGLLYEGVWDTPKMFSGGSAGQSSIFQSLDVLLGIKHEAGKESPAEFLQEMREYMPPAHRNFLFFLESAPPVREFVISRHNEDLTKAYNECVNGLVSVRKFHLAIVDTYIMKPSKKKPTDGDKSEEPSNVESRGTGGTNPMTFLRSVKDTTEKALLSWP

Tryptophan 2,3-dioxygenase (Mus musculus), sequence (P48776 whole entry): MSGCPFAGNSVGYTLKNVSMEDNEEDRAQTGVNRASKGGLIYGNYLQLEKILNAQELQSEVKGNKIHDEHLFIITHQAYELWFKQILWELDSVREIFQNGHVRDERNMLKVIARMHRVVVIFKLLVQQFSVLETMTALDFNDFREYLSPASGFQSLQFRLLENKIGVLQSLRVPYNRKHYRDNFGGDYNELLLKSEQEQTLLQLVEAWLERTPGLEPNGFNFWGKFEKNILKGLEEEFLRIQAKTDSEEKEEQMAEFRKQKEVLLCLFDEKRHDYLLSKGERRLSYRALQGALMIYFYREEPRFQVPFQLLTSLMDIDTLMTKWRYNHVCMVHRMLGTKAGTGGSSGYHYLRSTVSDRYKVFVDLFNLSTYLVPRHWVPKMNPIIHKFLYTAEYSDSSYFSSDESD

O=C(Cc1cccnc1)c1cc2cc([N+](=O)[O-])ccc2[nH]1
inhibition [1]: inactive
viability at 20 µM [2]: 90%

N#Cc1ccc(-n2nnc3ccccc32)cc1
inhibition [3]: > 50%

O=C(Cc1cccnc1)c1cc2ccccc2[nH]1
Ki [4]: 190 µM
inhibition [1]: inactive
Activity [2]: Non-toxic
inhibition [3]: > 50%
Activity [5]: Active

Cn1c(C(=O)Cc2cccnc2)cc2cc(F)ccc21
IC50 [6]: 92 µM
inhibition [7]: inactive
inhibition [1]: inactive
viability at 20 µM [2]: 95%

c1cncc(CCc2cc3ccccc3[nH]2)c1
inhibition [1]: inactive
viability at 20 µM [2]: 90%

OC(Cc1cccnc1)c1cc2ccccc2[nH]1 (configuration not stated)
inhibition [1]: inactive
viability at 20 µM [2]: 90%

Cc1ccc2[nH]c(C(=O)Cc3cccnc3)cc2c1
inhibition [1]: inactive
Activity [2]: Non-toxic

O=C(Cc1cccnc1)c1cc2cc(Cl)ccc2[nH]1
inhibition [1]: inactive
viability at 20 µM [2]: 90%

O=C(Cc1cccnc1)c1cc2c(F)cccc2[nH]1
inhibition [1]: inactive
viability at 20 µM [2]: 80%

Cn1c(C(=O)Cc2cccnc2)cc2ccccc21
inhibition [1]: inactive
Activity [2]: Non-toxic

O=C(Cc1cccnc1)c1cc2cc(F)ccc2[nH]1
inhibition [1]: inactive
Activity [2]: Non-toxic

COc1ccc2[nH]c(C(=O)Cc3cccnc3)cc2c1
inhibition [1]: inactive
Activity [2]: Non-toxic

O=C(Nc1cccnc1)c1cc2ccccc2[nH]1
inhibition [1]: inactive
viability at 20 µM [2]: 75%

Cn1cc(C[C@H](N)C(=O)O)c2ccccc21 [(L)-1-METHYLTRYPTOPHAN]
inhibition [1]: inactive
Activity [2]: Non-toxic
